According to US11149035B2, “Chemical compounds as H—PGDS inhibitors” (GlaxoSmithKline Intellectual Property Development Limited, priority 2017, dated 2021):

Each molecule was assayed against T1, haematopoietic prostaglandin D synthase (H-PGDS) (Homo sapiens, UniProt O60760) (assay: H-PGDS RapidFire high throughput mass spectrometry assay (conversion of PGH2 to PGD2)). Details: 10 nM H-PGDS, PGH2 formed in situ by COX-2 from arachidonic acid; four parameter curve fit; read-out: Potency Range (mean pIC50) (converted).
T1 construct: Full length human H-PGDS cDNA (Invitrogen Ultimate ORF IOH13026) was amplified by PCR; 6-His (N); TEV protease cleavage site (N); made in house; host or cells: E. coli BL21 (DE3*)
Assay type: biochemical
Procedure: The H-PGDS RapidFire™ mass spectrometric assay monitors conversion of prostaglandin H2 (PGH2) to prostaglandin D2 (PGD2) by haematopoietic prostaglandin D synthase (H-PGDS). In the assay format described here, the substrate (PGH2) is formed in situ by the action of cyclooxygenase-2 on arachidonic acid. This first step is set up to be fast, and generates a burst of PGH2 at ˜10 μM. The PGH2 is then further converted to PGD2 by the H-PGDS enzyme. […] Plates are then read on the RapidFire™ high throughput solid phase extraction system (Agilent) which incorporates a solid phase extraction step coupled to a triple quadrupole mass spectrometer (AB SCIEX). Relative levels of PGD2 and PGF2α, which acts as a surrogate for substrate, are measured and a percent conversion calculated. Inhibitors are characterised as compounds which lower the conversion of PGH2 to PGD2.
Full length human H-PGDS cDNA (Invitrogen Ultimate ORF IOH13026) was amplified by PCR with the addition of a 5′ 6-His tag and TEV protease cleavage site. The PCR product was digested with NdeI and XhoI and ligated into pET22b+ (Merck Novagen®). Expression was carried out in E. coli strain BL21 (DE3*) using auto-induction Overnight Express™ Instant TB medium (Merck Novagen®) supplemented with 1% glycerol. The culture was first grown at 37° C. and the temperature was reduced to 25° C. when OD600 reached 2.0. Cells were harvested by centrifugation after a further 18 hours. 10 g of E. coli cell pellet was suspended to a total volume of 80 mL in lysis buffer (20 mM Tris-Cl pH 7.5, 300 mM NaCl, 20 mM imidazole, 5 mM β-mercaptoethanol, 10% glycerol). 1 mg/mL protease inhibitors (Protease Inhibitor Cocktail Set III, Merck Calbiochem®) and 1 mg/mL lysozyme were added to the cell suspension. The suspension was then sonicated for 5 min (UltraSonic Processor VCX 750, Cole-Parmer Instrument Co.) with a micro probe (50% amplitude, 10 sec on/off) and then centrifuged at 100,000 g for 90 minutes (at 4° C.). The supernatant was loaded onto a Ni-NTA HiTrap column (5 mL, GE Healthcare, pre-equilibrated in lysis buffer). The column was washed with 10 column volumes of lysis buffer and eluted with lysis buffer containing 500 mM imidazole. The pooled protein peak fractions were concentrated using a 10 kDa centrifugal filter at 3500 g and 4° C. (Amicon Ultra-15 centrifugal filter unit with Ultracel-10 membrane from Millipore). Further purification of the concentrated protein was carried out using gel filtration chromatography on a HiLoad 26/600 Superdex 75 preparative grade column (GE Healthcare Life Sciences) using 50 mM Tris pH 7.5, 50 mM NaCl, 1 mM dithiothreitol, 1 mM MgCl2. Fractions containing the protein were pooled, concentrated as described above, and stored at −80° C.
The full length human COX-2 gene (accession number L15326) was amplified by PCR to generate an EcoRI—HindIII fragment containing an in-frame FLAG tag. This was subcloned into pFastBac 1 (Invitrogen). The COX-2 FLAG plasmid was recombined into the baculovirus genome according to the BAC-to-BAC protocol described by Invitrogen. Transfection into Spodoptera frugiperda (Sf9) insect cells was performed using Cellfectin (Invitrogen), according to the manufacturer's protocol. Super Sf9 cells were cultured in EX420 media (SAFC Biosciences) to a density of approximately 1.5×10^6 cells/mL within a wave bioreactor. Recombinant virus was added at a Multiplicity of Infection (MOI) of 5 and the culture was allowed to continue for 3 days. Cells were harvested using a continuous feed centrifuge run at 2500 g at a rate of approximately 2 L/min with cooling. The resultant cell slurry was re-centrifuged in pots (2500 g, 20 min, 4° C.) and the cell paste was stored at −80° C. 342 g of cell paste was re-suspended to a final volume of 1600 mL in a buffer of 20 mM Tris-Cl pH 7.4, 150 mM NaCl, 0.1 mM EDTA, 1.3% w/v n-octyl-[…] containing 20 Complete EDTA-free Protease Inhibitor Cocktail tablets (Roche Applied Science). […]

T1 sequence (O60760 whole entry): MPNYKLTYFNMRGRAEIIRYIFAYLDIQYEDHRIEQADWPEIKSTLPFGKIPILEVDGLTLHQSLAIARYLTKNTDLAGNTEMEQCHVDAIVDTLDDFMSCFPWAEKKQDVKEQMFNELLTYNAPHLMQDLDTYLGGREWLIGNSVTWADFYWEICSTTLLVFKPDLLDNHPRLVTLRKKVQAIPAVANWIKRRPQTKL

Compared with C[C@@H]1CNC(=O)[C@H]1NC(=O)c1cnc2cc(N3CC[C@@H]3C)ncc2c1 [Example 28, N-((3S,4R)-4-Methyl-2-oxopyrrolidin-3-yl)-7-((S)-2-methylazetidin-1-yl)-1,6-naphthyridine-3-carboxamide], C[C@@H]1CCN1c1cc2ncc(C(=O)N[C@H]3CC[C@H](C(C)(C)O)CC3)cc2cn1 [Example 12, N-(trans-4-(2-Hydroxypropan-2-yl)cyclohexyl)-7-((R)-2-methylazetidin-1-yl)-1,6-naphthyridine-3-carboxamide] is higher in IC50: 10 to 79.4 nM for the first, 100 to 1000 nM for the second.

CC(C)(O)[C@H]1CC[C@H](NC(=O)c2cnc3nc(NCC(F)(F)F)ccc3c2)CC1 [Example 17, N-(trans-4-(2-Hydroxypropan-2-yl)cyclohexyl)-7-((2,2,2-trifluoroethyl)amino)-1,8-naphthyridine-3-carboxamide] and CC(C)(O)[C@H]1CC[C@H](NC(=O)c2cnc3nc(OCC(F)(F)F)ccc3c2)CC1 [Example 55, N-(trans-4-(2-Hydroxypropan-2-yl)cyclohexyl)-7-(2,2,2-trifluoroethoxy)-1,8-naphthyridine-3-carboxamide] fall in the same range of IC50: 100 to 1000 nM for the first, 100 to 1000 nM for the second.

Compared with O=C(N[C@H]1CC[C@H](N2CC(F)(F)C2)CC1)c1cnc2cc(C3CC3)ncc2c1 [Example 38, 7-Cyclopropyl-N-(trans-4-(3,3-difluoroazetidin-1-yl)cyclohexyl)-1,6-naphthyridine-3-carboxamide], O=C(N[C@H]1CC[C@@](O)(C(F)F)CC1)c1cnc2cc(C3CC3)ncc2c1 [Example 33, 7-Cyclopropyl-N-((1r,4r)-4-(difluoromethyl)-4-hydroxycyclohexyl)-1,6-naphthyridine-3-carboxamide] is higher in IC50: 10 to 79.4 nM for the first, 100 to 1000 nM for the second.

First: O=C(N[C@H]1C[C@](O)(C(F)(F)F)C1)c1cnc2nc(C3CC3)c(Cl)cc2c1 [Example 77, 6-Chloro-7-cyclopropyl-N-((1s,3s)-3-hydroxy-3-(trifluoromethyl)cyclobutyl)-1,8-naphthyridine-3-carboxamide]
Second: C[C@]1(O)C[C@H](NC(=O)c2cnc3nc(C4CC4)c(Cl)cc3c2)C1 [Example 75, 6-Chloro-7-cyclopropyl-N-((1r,3r)-3-hydroxy-3-methylcyclobutyl)-1,8-naphthyridine-3-carboxamide]
The IC50 of the first is lower: under 10 nM for the first, 10 to 79.4 nM for the second.

CC(C)(O)[C@H]1C[C@H](NC(=O)c2cnc3nc(C4CC4)c(Cl)cc3c2)C1 [Example 73, 6-Chloro-7-cyclopropyl-N-(trans-3-(2-hydroxypropan-2-yl)cyclobutyl)-1,8-naphthyridine-3-carboxamide] and CC(C)(O)C1CC2(CC(NC(=O)c3cnc4cc(C5CC5)ncc4c3)C2)C1 (racemic) [Example 34, 7-Cyclopropyl-N-(6-(2-hydroxypropan-2-yl)spiro[3.3]heptan-2-yl)-1,6-naphthyridine-3-carboxamide] cannot be ordered by IC50: under 10 nM for the first, under 10 nM for the second.

C[C@H]1CCN1c1nc2ncc(C(=O)N[C@H]3CC[C@](C)(O)CC3)cc2cc1Cl [Example 59, 6-Chloro-N-((1r,4s)-4-hydroxy-4-methylcyclohexyl)-7-((S)-2-methylazetidin-1-yl)-1,8-naphthyridine-3-carboxamide] and C[C@H]1CCN1c1cc2ncc(C(=O)N[C@H]3CC[C@H](C(C)(C)O)CC3)cc2cn1 [Example 13, N-(trans-4-(2-Hydroxypropan-2-yl)cyclohexyl)-7-((S)-2-methylazetidin-1-yl)-1,6-naphthyridine-3-carboxamide] cannot be ordered by IC50: under 10 nM for the first, under 10 nM for the second.

C[C@]1(O)C[C@H](NC(=O)c2cnc3cc(C4CC4)ncc3c2)C1 [Example 41, 7-Cyclopropyl-N-((1r,3s)-3-hydroxy-3-methylcyclobutyl)-1,6-naphthyridine-3-carboxamide] and C[C@]1(O)C[C@@H](NC(=O)c2cnc3cc(C4CC4)ncc3c2)C1 [Example 31, 7-Cyclopropyl-N-((1s,3s)-3-hydroxy-3-methylcyclobutyl)-1,6-naphthyridine-3-carboxamide] fall in the same range of IC50: 100 to 1000 nM for the first, 100 to 1000 nM for the second.
